Source: patent publication US20170334919A1, “2-((4-AMINO-3-(3-FLUORO-5-HYDROXYPHENYL)-1H-PYRAZOLO[3,4-D]PYRIMIDIN-1 -YL)METHYL)-3-(2-(TRIFLUORO-MET HYL)BENZYL)QUINAZOLIN-4(3H)-ONE DERIVATIVES AND THEIR USE AS PHOSPHOINOSITIDE 3-KINASE INHIBITORS” (RESPIVERT LTD., priority 2013, published 2017)

Legend:
[1] = test system: d-U937 cells; experiment: MTT assay, cell viability; type: cell-based, human; settings: 10 μg/mL
Method: PMA-differentiated U937 cells were pre-incubated with test compound (10 μg/mL) or vehicle for 4 hr in 5% FCS or 10% FCS for 24 hr. The supernatant was replaced with new media (200 μL) and MTT stock solution (10 μL, 5 mg/mL) was added to each well. After 1 hr incubation, the media were removed, 200 μL of DMSO was added to each well and the plates were shaken lightly for 1 hr prior to reading the absorbance at 550 nm. The percentage loss of cell viability was calculated for each well relative to vehicle (0.5% DMSO)-treatment.

[2] = test system: cigarette smoke-induced cell accumulation and biomarkers in murine BALF; experiment: Cigarette smoke model; type: in vivo, A/J mice
Method: A/J mice (males, 5 weeks old) were exposed to cigarette smoke (4% cigarette smoke, diluted with compressed air) for 30 min/day for 11 days using a Tobacco Smoke Inhalation Experiment System for small animals (Model SIS-CS; Sibata Scientific Technology, Tokyo, Japan). Test substances were administered once daily for 3 days after the final cigarette smoke exposure (intra-nasal dose comprising 35 μL of solution in 50% DMSO/isotonic saline).
At 12 hr after administration of the last dose, animals were anesthetized, the trachea was cannulated and bronchial alveolar lavage (BAL) was carried out by the instillation into and then withdawal from the lungs, of PBS (100 mL/kg). Total cell numbers in the BALF samples were measured using a haemocytometer under a phase-contrast microscope. The proportions of alveolar macrophages and neutrophils were determined by FACS analysis using anti-mouse MOMA2-FITC (macrophage) or anti-mouse 7/4 (neutrophil).
Cells were suspended in PBS and were incubated with anti-MOMA2-FITC (2 μg/mL, Catalogue no SM065F, Acris Antibodies GmbH, Herford, Germany) or anti-7/4-FITC (2 μg/mL, Catalogue no CL050F, Acris Antibodies GmbH, Herford, Germany) for 30 min at 30° C., and also counterstained with propidium iodide (2 μg/mL) to allow exclusion of necrotic cells. The cells were washed with PBS, and transferred to FACS tubes. Samples was set in a flow cytometer (ALTRA II; Beckman Coulter Japan, Tokyo, Japan), and a single-parameter FL2 [PMT2] (FITC) histogram with log x-axis was plotted to illustrate relative intensity of FITC.
Data files are stored for subsequent analysis using Kaluza analysis software (ver. 1.2) to calculate the proportion of each cell type. The levels of CXCL1(KC), MCP1, TNFα, IL-17 or osteopontin in BALF were determined using Quentikine® mouse KC, MCP1, TNFα, IL-17 or osteopontin ELISA kit (R&D systems, Inc., Minneapolis, Minn., USA). The presence of malondialdehyde was measured using OxiSelect® TBARS Assay Kit (MDA Quantitation; Cell Biolabs Inc, San Diego, Calif., USA).

[3] = CS + Compound (I) 0.02 mg/mL intra-nasal
[4] = CS + Compound (I) 0.2 mg/mL intra-nasal
[5] = CS + Compound (I) 2 mg/mL intra-nasal

## COCCOCCOCC#Cc1cccc2nc(Cn3nc(-c4cc(O)cc(F)c4)c4c(N)ncnc43)n(Cc3ccccc3C(F)(F)F)c(=O)c12 [Compound (I), 2-((4-Amino-3-(3-fluoro-5-hydroxyphenyl)-1H-pyrazolo[3,4-d]pyrimidin-1-yl)methyl)-5-(3-(2-(2-methoxyethoxy)ethoxy)prop-1-yn-1-yl)-3-(2-(trifluoromethyl)benzyl)quinazolin-4(3H)-one]
[1]; 4 hr
  Cell Viability MTT Assay in d-U937 cells at 4 hr: −ve (−ve indicates a value of <30% inhibition at 10 μg/mL)
[1]; 24 hr
  Cell Viability MTT Assay in d-U937 cells at 24 hr: −ve (−ve indicates a value of <30% inhibition at 10 μg/mL)
[2]; [3]
  Cell numbers in BAL, Macrophages, % inhibition: 32%
  Cell numbers in BAL, Neutrophils, % inhibition: 0.2 (26) %
[2]; [4]
  Cell numbers in BAL, Macrophages, % inhibition: 0.2 (63) %
  Cell numbers in BAL, Neutrophils, % inhibition: 54%
[2]; [5]
  Cell numbers in BAL, Macrophages, % inhibition: 0.3 (79) %
  Cell numbers in BAL, Neutrophils, % inhibition: 0.1 (68) %
[2]; contemporaneous study, FIG. 2
  potency versus compound A, cigarette-smoke induced cell accumulation in murine BALF: more potent inhibitor of cigarette-smoke induced cell accumulation in murine BALF than is compound A
